Consider nine cell lines from the supplement of paper PMC10307832.

Compound in the assay “BI-D1870 + AZD7762”: CC(C)CCN1c2nc(Nc3cc(F)c(O)c(F)c3)ncc2N(C)C(=O)C1C [BI-D1870] + NC(=O)Nc1cc(-c2cccc(F)c2)sc1C(=O)N[C@H]1CCCNC1 [AZD7762] (partner 0.2 µM)
Briefly: relative viability (nuclei count vs DMSO), 5 days (fraction); higher = more cells survive. Summed up:
(§1)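 Relative viability is defined as nuclei in treated wells over nuclei in vehicle wells. Duplicate plates were run and medians reported. Lung cancer cell lines in 1536-well plates were dosed by pin tool one day after seeding, with one drug or with a fixed anchor-drug dose plus five library-drug doses (not always all listed) in √10 steps, and nuclei were counted after 5 days.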

Compound in the assay “BI-D1870 + Vorinostat”: CC(C)CCN1c2nc(Nc3cc(F)c(O)c(F)c3)ncc2N(C)C(=O)C1C [BI-D1870] + O=C(CCCCCCC(=O)Nc1ccccc1)NO [Vorinostat] (partner 1 µM)
The assay is described as above. Put shortly:
as §1

Regarding HCC-827, the relative viability in the assay with BI-D1870 + AZD7762 (first compound 0.04 µM) worked out at 0.233; in the assay with BI-D1870 + AZD7762 (first compound 0.1265 µM) it was 0.295; with BI-D1870 + AZD7762 (first compound 0.4 µM), 0.173; with BI-D1870 + AZD7762 (first compound 1.265 µM) it was 0.223; with BI-D1870 + AZD7762 (first compound 4 µM), 0.185; in the assay with BI-D1870 + Vorinostat (first compound 0.04 µM), 0.771. The relative viability in the assay with BI-D1870 + Vorinostat (first compound 0.1265 µM) came to 0.846; with BI-D1870 + Vorinostat (first compound 0.4 µM) it was 0.818; with BI-D1870 + Vorinostat (first compound 1.265 µM), 0.988; with BI-D1870 + Vorinostat (first compound 4 µM), 0.765.

Regarding HOP-62, the relative viability turned out to be 0.969 with BI-D1870 + AZD7762 (first compound 0.04 µM); 0.898 in the assay with BI-D1870 + AZD7762 (first compound 0.1265 µM); 0.798 with BI-D1870 + AZD7762 (first compound 0.4 µM); 0.834 with BI-D1870 + AZD7762 (first compound 1.265 µM); 0.651 in the assay with BI-D1870 + AZD7762 (first compound 4 µM); 0.737 with BI-D1870 + Vorinostat (first compound 0.04 µM). Further, the relative viability with BI-D1870 + Vorinostat (first compound 0.1265 µM) was determined as 0.669; with BI-D1870 + Vorinostat (first compound 0.4 µM) it was 0.602; with BI-D1870 + Vorinostat (first compound 1.265 µM), 0.703; in the assay with BI-D1870 + Vorinostat (first compound 4 µM), 0.464.

In the case of IA-LM, the relative viability in the assay with BI-D1870 + Vorinostat (first compound 0.04 µM) is 1.02; with BI-D1870 + Vorinostat (first compound 0.1265 µM), 0.927; in the assay with BI-D1870 + Vorinostat (first compound 0.4 µM), 0.913; with BI-D1870 + Vorinostat (first compound 1.265 µM), 1.08; with BI-D1870 + Vorinostat (first compound 4 µM), 0.874.

Regarding LC-2-ad, the relative viability came to 0.849 with BI-D1870 + AZD7762 (first compound 0.04 µM); 0.805 with BI-D1870 + AZD7762 (first compound 0.1265 µM); 0.831 with BI-D1870 + AZD7762 (first compound 0.4 µM); 0.886 with BI-D1870 + AZD7762 (first compound 1.265 µM); 0.675 in the assay with BI-D1870 + AZD7762 (first compound 4 µM); 0.696 with BI-D1870 + Vorinostat (first compound 0.04 µM). Besides, the relative viability with BI-D1870 + Vorinostat (first compound 0.1265 µM) stood at 0.646; with BI-D1870 + Vorinostat (first compound 0.4 µM), 0.701; in the assay with BI-D1870 + Vorinostat (first compound 1.265 µM), 0.705; in the assay with BI-D1870 + Vorinostat (first compound 4 µM), 0.56.

For LCLC-97TM1, the relative viability with BI-D1870 + AZD7762 (first compound 0.04 µM) was determined as 0.194; with BI-D1870 + AZD7762 (first compound 0.1265 µM), 0.317; with BI-D1870 + AZD7762 (first compound 0.4 µM) it was 0.174; in the assay with BI-D1870 + AZD7762 (first compound 1.265 µM), 0.368; with BI-D1870 + AZD7762 (first compound 4 µM), 0.335; with BI-D1870 + Vorinostat (first compound 0.04 µM), 1. The relative viability with BI-D1870 + Vorinostat (first compound 0.1265 µM) stood at 0.684; in the assay with BI-D1870 + Vorinostat (first compound 0.4 µM), 0.722; with BI-D1870 + Vorinostat (first compound 1.265 µM), 0.868; with BI-D1870 + Vorinostat (first compound 4 µM) it was 0.472.

For LCLC-103H, the relative viability was 0.768 with BI-D1870 + AZD7762 (first compound 0.04 µM); 0.655 with BI-D1870 + AZD7762 (first compound 0.1265 µM); 0.804 in the assay with BI-D1870 + AZD7762 (first compound 0.4 µM); 0.871 with BI-D1870 + AZD7762 (first compound 1.265 µM); 0.741 in the assay with BI-D1870 + AZD7762 (first compound 4 µM); 0.886 in the assay with BI-D1870 + Vorinostat (first compound 0.04 µM). In addition, the relative viability with BI-D1870 + Vorinostat (first compound 0.1265 µM) was 0.719; with BI-D1870 + Vorinostat (first compound 0.4 µM), 0.786; with BI-D1870 + Vorinostat (first compound 1.265 µM) it was 0.755; in the assay with BI-D1870 + Vorinostat (first compound 4 µM), 0.535.

As to LK-2, the relative viability in the assay with BI-D1870 + AZD7762 (first compound 0.04 µM) amounted to 0.509; with BI-D1870 + AZD7762 (first compound 0.1265 µM), 0.473; in the assay with BI-D1870 + AZD7762 (first compound 0.4 µM), 0.374; with BI-D1870 + AZD7762 (first compound 1.265 µM), 0.536; with BI-D1870 + AZD7762 (first compound 4 µM), 0.263; with BI-D1870 + Vorinostat (first compound 0.04 µM), 0.351. The relative viability in the assay with BI-D1870 + Vorinostat (first compound 0.1265 µM) turned out to be 0.391; with BI-D1870 + Vorinostat (first compound 0.4 µM) it was 0.468; with BI-D1870 + Vorinostat (first compound 1.265 µM) it was 0.277; with BI-D1870 + Vorinostat (first compound 4 µM), 0.279.

As for LOU-NH91, the relative viability is 0.846 with BI-D1870 + AZD7762 (first compound 0.04 µM); 0.755 with BI-D1870 + AZD7762 (first compound 0.1265 µM); 0.73 in the assay with BI-D1870 + AZD7762 (first compound 0.4 µM); 0.804 in the assay with BI-D1870 + AZD7762 (first compound 1.265 µM); 0.624 with BI-D1870 + AZD7762 (first compound 4 µM); 0.991 with BI-D1870 + Vorinostat (first compound 0.04 µM). Moreover, the relative viability with BI-D1870 + Vorinostat (first compound 0.1265 µM) came to 0.859; with BI-D1870 + Vorinostat (first compound 0.4 µM) it was 0.876; in the assay with BI-D1870 + Vorinostat (first compound 1.265 µM), 0.858; with BI-D1870 + Vorinostat (first compound 4 µM) it was 0.655.

In the case of LU99A, the relative viability with BI-D1870 + AZD7762 (first compound 0.04 µM) came to 0.414; with BI-D1870 + AZD7762 (first compound 0.1265 µM), 0.3; with BI-D1870 + AZD7762 (first compound 0.4 µM) it was 0.429; in the assay with BI-D1870 + AZD7762 (first compound 1.265 µM), 0.655; with BI-D1870 + AZD7762 (first compound 4 µM), 0.49; in the assay with BI-D1870 + Vorinostat (first compound 0.04 µM), 0.584. The relative viability in the assay with BI-D1870 + Vorinostat (first compound 0.1265 µM) amounted to 0.422; in the assay with BI-D1870 + Vorinostat (first compound 0.4 µM) it was 0.412; with BI-D1870 + Vorinostat (first compound 1.265 µM), 0.428; with BI-D1870 + Vorinostat (first compound 4 µM), 0.345.
